Reference: patent EP0219377A1, “Process for the preparation of spherical paracetamol agglomerates and products obtained thereby” (RHONE-POULENC SANTE, priority 1985, dated 1987)

Experiments:
[1] = flowability (coulabilité) test on the Hosokawa combined powder tester; type: physicochemical; conditions: for Angle de spatule / Angle de talus / Densité (non tassée): combiné Hosokawa
Text: Les propriétés de coulabilité et de dissolution du produit ainsi obtenu sont comparées à celle de paracétamol cristallisé paracétamol broyé (refus à 425 µ < 0,5 %, refus à 250 µ < 5 %) paracétamol broyé super fin (refus à 50 µ < 10 %, refus à 80 µ < 1 %) a) coulabilité : les produits sont testés sur le combiné Hosokawa commercialisé par Hosokawa Europe Ltd, St John's Estate, Tylers Green High Wycombe, Buckinghamshire, England.

[2] = dissolution of suspensions of 1, 2 and 3 g in 200 cm3 of water, stirred at room temperature; type: physicochemical; conditions: insoluble filtered, dried and weighed after at most 10 minutes
Text: Les résultats suivants sont obtenus :

[3] = Concentration 5 g/l (1 g in 200 cm3 water)
[4] = Concentration 10 g/l (2 g in 200 cm3 water)
[5] = Concentration 15 g/l (3 g in 200 cm3 water)

Q: For `CC(=O)Nc1ccc(O)cc1` [Aggloméré, paracétamol], which Angle de spatule [1] is on record?
A: 41°

Q: And the Angle de talus [1]?
A: 37°

Q: What about the “Densité (non tassée)” value [1] of the same molecule?
A: 400 kg/m3

Q: And the coulabilité ([1]; result in words, compared with the crystallised and ground products)?
A: aussi bonne que le produit cristallisé

Q: What about the Pourcentage dissous [2, 3] of the same molecule?
A: 100

Q: And the Pourcentage dissous [2, 4]?
A: 100

Q: And the Pourcentage dissous [2, 5]?
A: > 98

Q: Which Angle de spatule [1] does the source give for `CC(=O)Nc1ccc(O)cc1` [Broyé super fin, paracétamol] here?
A: 76°

Q: What about the Angle de talus [1] of the same molecule?
A: 60°

Q: And the “Densité (non tassée)” value [1]?
A: 150 kg/m3

Q: What about the Pourcentage dissous [2, 3] of the same molecule?
A: 100

Q: What about the Pourcentage dissous [2, 4] of the same molecule?
A: 100

Q: What about the Pourcentage dissous [2, 5] of the same molecule?
A: > 98

Q: Which Angle de spatule [1] does the source give for `CC(=O)Nc1ccc(O)cc1` [Broyé, paracétamol] here?
A: 74°

Q: What about the Angle de talus [1] of the same molecule?
A: 56°

Q: And the “Densité (non tassée)” value [1]?
A: 280 kg/m3

Q: What about the Pourcentage dissous [2, 3] of the same molecule?
A: 100

Q: What about the Pourcentage dissous [2, 4] of the same molecule?
A: 100

Q: And the Pourcentage dissous [2, 5]?
A: > 98

Q: Which Angle de spatule [1] does the source give for `CC(=O)Nc1ccc(O)cc1` [Cristallisé, paracétamol] here?
A: 39°

Q: And the Angle de talus [1]?
A: 39°

Q: And the “Densité (non tassée)” value [1]?
A: 700 kg/m3

Q: And the Pourcentage dissous [2, 3]?
A: > 95

Q: What about the Pourcentage dissous [2, 4] of the same molecule?
A: 85

Q: And the Pourcentage dissous [2, 5]?
A: 83
